Data on 4 molecules can be found in US9687483B2, “Treatment of cerebral cavernous malformations and cerebral aneurysms with Rho kinase inhibitors” (priority 2015, dated 2017).

Values joined by “and” are separate entries in the source; they are usually repeats but may differ in a detail not shown here. Equal values may be shown once. Read-outs that look alike come from different tables or passages of the source.

The test system of data set [1] is HUVEC cells. The experiment in a line: Endothelial cell actin cytoskeleton, Rhodamine-phalloidin staining. Type of data set: cell-based, human. As to conditions: 10 μM or 25 μM.
Data set [2] has as its system HUVEC cells. Nature of the data set: In vitro endothelial tubulogenesis assay on ECMatrix. Type of data set: cell-based, human. As to conditions: 10 or 50 μM (or μg/mL); 6 hr to 16 hr; vs untreated cells.
For data set [3], the system named is HUVEC cells.
Data set [4] concerns Caco-2 cell monolayers. Nature of the data set: Caco-2 permeability assay. A general note: Passage across Caco-2 layers is used to estimate intestinal permeability.
The next data set relates to cadherin in HUVEC cells. Nature of the data set: Cadherin expression in HUVEC, Western blot. It counts as cell-based, human. The note with it: 50 μM, 24 hr, vs control; p<0.05. (In general: Immunoblotting shows a protein as a band on a membrane.)
In data set [5] the test system is ROCK II recombinantly-produced kinase domain. As to conditions: ROCK II versus ROCK I.
For data set [6], the target named is ROCK II recombinantly-produced kinase domain (Homo sapiens (Human), UniProt O75116). As to conditions: read-out: ROCK II IC50; ATP 10 μM, substrate 200 nM; Fasudil mean ± SD of 3-4 experiments; BA-1049 two individual experiments.
Another data set deals with occludin in HUVEC cells. Nature of the data set: Occludin expression in HUVEC, Western blot. The note with it: for Effect on junctional protein expression at lower dose: 25 μM. It counts as cell-based, human.
Data set [7] deals with ROCK I recombinantly-produced kinase domain (Homo sapiens (Human), UniProt Q13464). The note with it: read-out: ROCK I IC50; ATP 10 μM, substrate 200 nM; Fasudil mean ± SD of 3-4 experiments; BA-1049 two individual experiments.
The subject of data set [8] is Caco-2 cell monolayers. As to conditions: for Transport mechanism across Caco-2 monolayers: from B to A/A to B Papp ratios; for Caco-2 cell permeability (classification): from measured Papp values.
Data set [9] relates to induced intracranial saccular aneurysms in Sprague Dawley rats. Nature of the data set: Reduction of prevalence/size of existing aneurysms in vivo. Further details: species or system rat.
The test system is the same in data set [10]. Nature of the data set: Prophylactic reduction of intracranial aneurysm burden in vivo. Further details: species or system rat. As to conditions: vs control rats.
A short description of data set [11]: in vitro. As to conditions: human, Caco-2, pH 7.4.
The conditions of data set [12]: known values for controls; cited from earlier work.
Data set [13] can be described thus: in vitro. The note with it: human, plasma.
[14] abbreviates: human plasma, 24 hr dialysis, 37° C., mean of 2 replicates.
[15] abbreviates: both, human, 24 h, 35 µM, pH 7.4.
Setting [16] is: both, human, plasma, 24 h, 35 µM, pH 7.4.

Chain of ROCK I recombinantly-produced kinase domain (Q13464 76-338): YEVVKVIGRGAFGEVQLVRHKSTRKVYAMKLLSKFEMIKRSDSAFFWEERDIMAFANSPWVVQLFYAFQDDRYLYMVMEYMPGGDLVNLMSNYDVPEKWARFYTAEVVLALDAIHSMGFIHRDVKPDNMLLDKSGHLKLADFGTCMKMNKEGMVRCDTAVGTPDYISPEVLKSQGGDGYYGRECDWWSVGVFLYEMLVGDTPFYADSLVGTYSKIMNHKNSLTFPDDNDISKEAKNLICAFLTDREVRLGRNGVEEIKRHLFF

For the molecule `CC(N)C1CCN(S(=O)(=O)c2cccc3cnccc23)CC1.Cl.Cl` (racemic) [BA-1049], in the data set with HUVEC cells [1], the “Effect on actin stress fibers” value is recorded as “disrupted stress fibers” and the “Effect on junctional (peripheral) actin distribution” value is given as “little to no effect”. In addition, in the data set on HUVEC cells [2], the “Endothelial cell tube formation” value is “some tubes are visible but are not always closed and are thin”. The “Disruption of proliferation compared with Fasudil at a given concentration” value in the data set on HUVEC cells [3] (72 hr) was “did not disrupt proliferation to the same extent as Fasudil”. Further, the “Proliferation of endothelial cells” value in the data set with HUVEC cells [3] (72 hr incubation) was “reduced proliferation”. The “Concentration at which decrease in cell proliferation appears” value in the data set with HUVEC cells [3] (72 hr, p<0.05 or p<0.01) was 1 µM. In the data set on Caco-2 cell monolayers [4], the “B-A/A-B Papp Ratio” value worked out at 1.31. In the data set with human plasma proteins (setting [14]), this molecule had a Bound of 7.26% and an Unbound of 92.7%. In the data set with cadherin in HUVEC cells, this molecule returned a Cadherin increase of 1.2 fold. For the same molecule, the “Selectivity for Rock II” value in [5] is reported as 13.1 -fold. In addition, the half-inhibitory concentration (IC50) (as a rule, the point on the concentration scale where inhibition reaches its midpoint) in data set [6] was 1600 nM and 940 nM. In the data set on occludin in HUVEC cells, the “Effect on junctional protein expression at lower dose” value was “no significant effect”. Also, in the data set with occludin in HUVEC cells (50 μM, 24 hr, vs control, p<0.05), the Occludin increase came out at 1.3 fold. Besides, in [7], the IC50 came out at 21000 nM. In the data set with Caco-2 cell monolayers [8] (apical to basolateral, 60 min, pH 7.4), the “Papp A to B” value was 10.7 ×10⁻⁶ cm/s. The “Papp B to A” value in the data set on Caco-2 cell monolayers [8] (basolateral to apical, 60 min, pH 7.4) came out at 14.1 ×10⁻⁶ cm/s. Also, in the data set on Caco-2 cell monolayers [8], the “Transport mechanism across Caco-2 monolayers” value is listed as “passively transported” and the “Caco-2 cell permeability (classification)” value is “intermediate to high”.

In the case of `O=S(=O)(c1cccc2cnccc12)N1CCCNCC1` [Fasudil], the “Total number of saccular aneurysms in 6 mo and 8 mo rats” value in [9] (vs baseline (4 mo) results) is “reduces”. Besides, in data set [9] (vs control rats), the “Average aneurysm size and area” value is given as “reduces”; the “Level of inflammatory invasion in a given aneurysm” value is on record as “reduces”; the “Number of iron deposits near a given aneurysm” value was “reduces”; the “Rho kinase activity in the endothelial/smooth muscle cells of the aneurysm wall” value is “reduces”. For the same molecule, in data set [9] (vs control rats), the “Total number of saccular aneurysms” value was “reduces”. Moreover, in the data set on HUVEC cells [1], the “Effect on junctional (peripheral) actin distribution” value is “disrupted the peripheral actin to a greater extent than the stress fibers”. For the same molecule, in the data set on HUVEC cells [2], the “Endothelial cell tube formation” value is “some tubes are visible but are not always closed and are thin”. In [10], the “Average aneurysm size and area” value is given as “reduces”; the “Level of inflammatory invasion in a given aneurysm” value is listed as “reduces”; the “Number of iron deposits near a given aneurysm” value is “reduces”; the “Rho kinase activity in the endothelial and smooth muscle cells of the aneurysm wall” value is reported as “reduces”. Besides, the “Total number of saccular aneurysms” value in data set [10] (daily or weekly dose for 2 mo) is “reduces”. Also, in the data set on human plasma proteins (setting [15]), the Bound is reported as 19.2%. In the data set on human plasma proteins (setting [16]), this molecule came in with an Unbound of 81.8%. Moreover, in the data set with cadherin in HUVEC cells, the Cadherin increase amounted to 1.2 fold. In addition, in the data set “in vitro [11]”, the apparent permeability from apical to basolateral (Papp A→B) (usually how fast a substance crosses the layer from the apical side) at 60 min, 35 µM is 18.9 ×10⁻⁶ cm/s and the Papp B→A (as a rule, how fast a substance crosses the layer from the basolateral side) at 60 min, 35 µM came out at 18.5 ×10⁻⁶ cm/s. The “Effect on junctional protein expression at lower dose” value in the data set with occludin in HUVEC cells was “no significant effect”. Moreover, the Occludin decrease in the data set with occludin in HUVEC cells (50 μM, 24 hr, vs control, p<0.001) was found to be 50%. In the data set with Caco-2 cell monolayers [8], the “Transport mechanism across Caco-2 monolayers” value is “passively transported” and the “Caco-2 cell permeability (classification)” value is “high”.

Take `OC[C@@H](O)[C@@H](O)[C@H](O)[C@H](O)CO` [[^3H]-Mannitol, D-[1-^3H(N)]Mannitol]: the “% absorption in humans” value in data set [12] was 15%. Further, in the data set “in vitro [11]”, the apical-to-basolateral permeability (Papp A→B) at 60 min was found to be 2.62 ± 0.81 ×10⁻⁶ cm/s; the apical-to-basolateral permeability (Papp A→B) at 60 min, 35 µM is 1.01 ± 0.146 ×10⁻⁶ cm/s; the Papp B→A at 60 min is 1.36 ± 0.362 ×10⁻⁶ cm/s; the apparent permeability from basolateral to apical (Papp B→A) at 60 min, 35 µM came out at 0.821 ± 0.362 ×10⁻⁶ cm/s. The efflux ratio (as a rule, a quotient of directional permeabilities that is used to spot active efflux) at 60 min, 35 µM in “in vitro [11]” was 0.81.

Consider `CC(C)NC[C@H](O)COc1cccc2ccccc12` [[^3H]-Propranolol, L-(−)-[4-^3H]propranolol], for which the free fraction (fraction unbound) (usually the share of the substance not bound to proteins or other matrix) in “in vitro [13]” is 0.121. In the data set on human plasma proteins (setting [15]), this molecule came in with a Bound of 91.3%. In the data set on human plasma proteins (setting [16]), this molecule displayed an Unbound of 8.67%. Moreover, in “in vitro [11]”, the Papp A→B at 60 min is 32.3 ± 5.4 ×10⁻⁶ cm/s; the Papp A→B at 60 min, 35 µM amounted to 36 ± 1.65 ×10⁻⁶ cm/s; the Papp B→A at 60 min is 31 ± 5.27 ×10⁻⁶ cm/s; the Papp B→A at 60 min, 35 µM came out at 27.8 ± 3.68 ×10⁻⁶ cm/s.
